Measured values reported in paper PMC11541501, “Development of a Candidate ^11C‑Labeled Selective Phosphodiesterase 1 Radioligand for Positron Emission Tomography” (ACS Omega, 2024).
Like-named read-outs stand apart in the source and are kept apart here.

Experiments:
[1] = system: PDE1; details: cited from earlier work; for IC50: introduction, literature value
[2] = target: PDE1A (Homo sapiens, UniProt P54750); assay: PDE1A inhibition; format: biochemical
[3] = target: T1, PDE1B (Homo sapiens, UniProt Q01064); assay: PDE1B inhibition; format: biochemical
[4] = target: PDE1C (Homo sapiens, UniProt Q14123); assay: PDE1C inhibition; format: biochemical
[5] = target: PDE10A (Homo sapiens, UniProt Q9Y233); assay: Potency toward other PDEs (PDE10A); format: biochemical
[6] = Log D by shake flask method (n-octanol/PBS); format: physicochemical; details: measured with [11C]PF-04822163
Description: (§1) Furthermore, we investigated the off-target binding of PF-04822163 in vitro against 65 major CNS targets, including ion channels, transporters, and GPCR enzymes (Figure S2 in the Supporting Information, supported by the NIMH Psychoactive Drug Screening Program (PDSP)).
The measurement of log D was performed as previously reported. In brief, [^11C]-PF-04822163, n-octanol (3 mL), and PBS (1×, 3 mL) were added to a centrifuge tube, and vortexing was conducted for 3 min followed by centrifugation (∼14,000 rpm) for 5 min. PBS (around 500 μL) and n-octanol (around 50 μL) were then weighted and measured by a gamma counter.

[7] = system: 65 major CNS targets, including ion channels, transporters, and GPCR enzymes; assay: Off-target binding screen against 65 major CNS targets (NIMH PDSP); details: 10 μM testing concentration; except 5-HT2B and 5-HT6
Excerpt: as §1
(§2) % Inhibition of Target Activity
(§3) Figure S2. Off-target pharmacological evaluation of compound PF-04822163 against major CNS targets, including common GPCRs, enzymes, ion channels, and transporters: initial screening at a concentration of 10 μM (supported by the NIMH PDSP). All data are […]
(§4) Figure S3. The time-activity-curves (0-60 min) of PET studies with [11C]PF-04822163 in rat brains under baseline and blocking conditions. All data were referred to as mean ± SEM,

[8] = target: T2, 5-HT2B (Homo sapiens, UniProt P41595); assay: Off-target binding, 5-HT2B (NIMH PDSP)
T2 construct: NIMH Psychoactive Drug Screening Program (PDSP)
Excerpt: as §1, §2, §3, §4

[9] = target: T3, 5-HT6 (Homo sapiens, UniProt P50406); assay: Off-target binding, 5-HT6 (NIMH PDSP)
T3 construct: NIMH Psychoactive Drug Screening Program (PDSP)
Excerpt: as §1, §2, §3, §4

[10] = system: PDE1B; assay: In vitro autoradiography with [11C]PF-04822163 on rat brain sections, blocking; format: binding, Sprague–Dawley (SD) rat; details: blocker 10 μM, [11C]PF-04822163 autoradiography
Description: With the ligand [^11C]-PF-04822163 in hand, in vitro autoradiography studies were conducted on Sprague–Dawley (SD) rat brain sections to validate its binding specificity toward PDE1. […] In the autoradiography studies on the coronal brain sections, high radioactivity levels were found in the caudate putamen, nucleus accumbens, and olfactory tubercle (Figure a,c).
3 In vitro autoradiography studies of [^11C]-PF-04822163 on rat brain sections. (a) Representative images of autoradiography studies with [^11C]-PF-04822163 under baseline and blocking conditions (PF-04822163 or PF-04827736, 10 μM), (b) quantification of autoradiography studies of [^11C]-PF-04822163 on sagittal rat brain sections, and (c) quantification of autoradiography studies of [^11C]-PF-04822163 on coronal rat brain sections. All data are means ± SD, n ≥ 8. Statistical analysis was conducted with Student’s two-tailed t tests, and asterisks indicated the statistical significance as follows: *p < 0.05, **p ≤ 0.01, and ***p ≤ 0.001.
Autoradiography studies were performed according to previous reports. , In brief, the rat brain sections (20 μm) were preincubated with a Tris–HCl buffer (50 mM) at room temperature for 20 min followed by incubation with [^11C]-PF-04822163 (168 Bq/mL). […] The radioactivity values were normalized as a percentage of the radioactivity relative to the control.

[11] = system: PDE1; assay: Dynamic PET imaging in rat brains; format: in vivo, SD rats
Description: Encouraged by the results of in vitro evaluation by autoradiography studies with the ligand [^11C]-PF-04822163, dynamic PET imaging studies were conducted with [^11C]-PF-04822163 on SD rats. […] Additionally, an evident washout was observed after initial high uptakes in all brain regions. To assess the in vivo binding specificity of [^11C]-PF-04822163 to PDE1, we carried out blocking studies with the pretreatment of unlabeled PF-04822163 (1 mg/kg, 10 min before the administration of [^11C]-PF-04822163). […] These findings indicate that further optimization of the pharmacological and ADME properties is warranted to obtain a suitable probe for in vivo imaging of PDE1.
4 PET studies of [^11C]-PF-04822163 in rat brains. […]
PET imaging was conducted as previously reported. , An Inveon PET scanner (Siemens) was used for dynamic PET imaging studies, [^11C]-PF-04822163 (ca. 17.5 MBq/1.5 mL) was intravenously injected via the tail vein via a preinstalled catheter, and dynamic PET images were acquired in a 3D mode for a period of 60 min. […] The dynamic PET images were reconstructed using ASIPro VW software, and volumes of interest were calculated.

[12] = target: T1, PDE1B; details: introduction, literature value; ref Humphrey et al., 2014; cited from earlier work
[13] = Whole-body biodistribution study in mice; format: in vivo, ddY mice
Description: To investigate the distribution of [^11C]-PF-04822163 in the whole body, we conducted a biodistribution study in ddY mice (Figure ). The radioactivity levels in major organs were assessed at 1, 5, 15, 30, and 60 min after the administration of [^11C]-PF-04822163. […] After the initial uptake, radioactivity accumulations decreased in almost all organs, while the uptake in the small intestine increased, and liver uptake remained at a high level (5% ID/g at 60 min), indicating a hepatobiliary elimination route.
The biodistribution experiment was performed according to previous reports. , In brief, [^11C]-PF-04822163 (4.44 MBq/0.1 mL) was injected (i.v.) into ddY mice via the tail vein. After the administration of [^11C]-PF-04822163, the mice were sacrificed at different time points (1, 5, 15, 30, and 60 min), and tissues of interest were collected. The tissues were weighted and measured by a gamma counter.

[14] = Radiometabolic analysis in rat brain and plasma; format: in vivo, SD rats; details: 15 min postadministration
Description: To gain insight into the in vivo stability of [^11C]-PF-04822163, we performed radiometabolic analysis in the brain and plasma of SD rats (Figure ). At 15 min postadministration of [^11C]-PF-04822163, 95% of [^11C]-PF-04822163 remained unchanged in the brain, while in plasma, 26% remained unchanged.
The radiometabolic analysis was performed following a previous report. After the intravenous injection of [^11C]-PF-04822163, SD rats were sacrificed at 15 min postinjection. Plasma samples were quenched with acetonitrile and centrifuged, and the supernatant was assessed by radio-HPLC. The brain was collected and homogenized and quenched with acetonitrile, and the resulting homogenate was centrifuged. The supernatant was analyzed by radio-HPLC.

T1 sequence (Q01064 whole entry, species assumed): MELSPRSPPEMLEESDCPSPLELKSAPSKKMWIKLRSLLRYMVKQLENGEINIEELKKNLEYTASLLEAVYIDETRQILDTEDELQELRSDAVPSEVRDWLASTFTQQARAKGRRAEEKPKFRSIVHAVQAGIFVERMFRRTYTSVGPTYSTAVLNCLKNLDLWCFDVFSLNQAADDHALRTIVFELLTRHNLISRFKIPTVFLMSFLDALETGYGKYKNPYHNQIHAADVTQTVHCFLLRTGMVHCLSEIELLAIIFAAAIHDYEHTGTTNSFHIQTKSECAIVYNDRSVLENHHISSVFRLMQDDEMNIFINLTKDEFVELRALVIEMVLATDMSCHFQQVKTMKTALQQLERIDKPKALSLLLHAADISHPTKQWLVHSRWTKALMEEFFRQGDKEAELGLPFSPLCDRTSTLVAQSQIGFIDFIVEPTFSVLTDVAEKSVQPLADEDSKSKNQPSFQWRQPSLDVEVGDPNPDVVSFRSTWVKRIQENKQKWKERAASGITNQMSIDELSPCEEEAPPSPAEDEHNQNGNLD
Chain of PDE1C (Q14123 whole entry, species assumed): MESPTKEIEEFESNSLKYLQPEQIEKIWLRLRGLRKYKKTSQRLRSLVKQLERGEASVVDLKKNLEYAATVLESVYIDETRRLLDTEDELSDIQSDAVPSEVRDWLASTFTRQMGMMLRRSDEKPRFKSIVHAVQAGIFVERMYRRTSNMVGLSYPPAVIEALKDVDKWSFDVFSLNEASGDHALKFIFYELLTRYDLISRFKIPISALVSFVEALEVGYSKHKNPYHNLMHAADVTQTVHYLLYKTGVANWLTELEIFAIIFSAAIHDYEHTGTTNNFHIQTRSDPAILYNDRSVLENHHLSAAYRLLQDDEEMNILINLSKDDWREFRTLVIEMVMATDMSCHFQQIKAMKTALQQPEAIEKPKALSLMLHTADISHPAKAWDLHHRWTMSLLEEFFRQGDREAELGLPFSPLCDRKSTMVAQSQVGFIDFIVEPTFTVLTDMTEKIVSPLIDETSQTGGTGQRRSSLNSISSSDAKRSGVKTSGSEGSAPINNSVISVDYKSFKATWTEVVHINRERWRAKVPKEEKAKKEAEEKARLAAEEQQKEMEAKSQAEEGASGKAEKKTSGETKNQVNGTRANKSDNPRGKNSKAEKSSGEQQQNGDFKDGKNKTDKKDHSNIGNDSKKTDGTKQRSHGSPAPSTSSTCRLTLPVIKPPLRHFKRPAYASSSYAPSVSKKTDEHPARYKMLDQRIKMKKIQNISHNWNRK
Chain of PDE1A (P54750 whole entry, species assumed): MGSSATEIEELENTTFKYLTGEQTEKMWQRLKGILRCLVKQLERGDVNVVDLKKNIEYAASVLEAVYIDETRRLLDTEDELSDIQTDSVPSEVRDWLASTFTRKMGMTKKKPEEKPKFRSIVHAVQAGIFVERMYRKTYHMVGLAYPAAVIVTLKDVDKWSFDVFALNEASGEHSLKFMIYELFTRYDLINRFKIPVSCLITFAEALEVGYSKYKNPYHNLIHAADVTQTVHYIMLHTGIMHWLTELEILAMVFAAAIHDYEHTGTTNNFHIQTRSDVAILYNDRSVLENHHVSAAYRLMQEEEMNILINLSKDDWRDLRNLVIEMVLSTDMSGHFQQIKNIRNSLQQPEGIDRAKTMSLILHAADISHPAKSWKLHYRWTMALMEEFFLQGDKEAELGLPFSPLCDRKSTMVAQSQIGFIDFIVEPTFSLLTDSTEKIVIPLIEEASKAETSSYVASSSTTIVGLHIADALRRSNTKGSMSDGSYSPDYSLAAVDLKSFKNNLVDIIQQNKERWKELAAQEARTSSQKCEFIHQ
T3 sequence (P50406 whole entry): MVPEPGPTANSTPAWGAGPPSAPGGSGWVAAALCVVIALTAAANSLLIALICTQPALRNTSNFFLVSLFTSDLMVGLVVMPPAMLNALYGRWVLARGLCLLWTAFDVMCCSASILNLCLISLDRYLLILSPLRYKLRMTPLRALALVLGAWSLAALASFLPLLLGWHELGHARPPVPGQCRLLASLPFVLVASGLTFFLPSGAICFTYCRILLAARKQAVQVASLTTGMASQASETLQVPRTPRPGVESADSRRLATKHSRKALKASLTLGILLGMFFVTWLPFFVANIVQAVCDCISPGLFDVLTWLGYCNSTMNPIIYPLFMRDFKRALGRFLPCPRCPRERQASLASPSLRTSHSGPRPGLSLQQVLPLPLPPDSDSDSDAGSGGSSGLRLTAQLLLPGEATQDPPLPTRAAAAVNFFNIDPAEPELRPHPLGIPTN
Chain of PDE10A (Q9Y233 whole entry, species assumed): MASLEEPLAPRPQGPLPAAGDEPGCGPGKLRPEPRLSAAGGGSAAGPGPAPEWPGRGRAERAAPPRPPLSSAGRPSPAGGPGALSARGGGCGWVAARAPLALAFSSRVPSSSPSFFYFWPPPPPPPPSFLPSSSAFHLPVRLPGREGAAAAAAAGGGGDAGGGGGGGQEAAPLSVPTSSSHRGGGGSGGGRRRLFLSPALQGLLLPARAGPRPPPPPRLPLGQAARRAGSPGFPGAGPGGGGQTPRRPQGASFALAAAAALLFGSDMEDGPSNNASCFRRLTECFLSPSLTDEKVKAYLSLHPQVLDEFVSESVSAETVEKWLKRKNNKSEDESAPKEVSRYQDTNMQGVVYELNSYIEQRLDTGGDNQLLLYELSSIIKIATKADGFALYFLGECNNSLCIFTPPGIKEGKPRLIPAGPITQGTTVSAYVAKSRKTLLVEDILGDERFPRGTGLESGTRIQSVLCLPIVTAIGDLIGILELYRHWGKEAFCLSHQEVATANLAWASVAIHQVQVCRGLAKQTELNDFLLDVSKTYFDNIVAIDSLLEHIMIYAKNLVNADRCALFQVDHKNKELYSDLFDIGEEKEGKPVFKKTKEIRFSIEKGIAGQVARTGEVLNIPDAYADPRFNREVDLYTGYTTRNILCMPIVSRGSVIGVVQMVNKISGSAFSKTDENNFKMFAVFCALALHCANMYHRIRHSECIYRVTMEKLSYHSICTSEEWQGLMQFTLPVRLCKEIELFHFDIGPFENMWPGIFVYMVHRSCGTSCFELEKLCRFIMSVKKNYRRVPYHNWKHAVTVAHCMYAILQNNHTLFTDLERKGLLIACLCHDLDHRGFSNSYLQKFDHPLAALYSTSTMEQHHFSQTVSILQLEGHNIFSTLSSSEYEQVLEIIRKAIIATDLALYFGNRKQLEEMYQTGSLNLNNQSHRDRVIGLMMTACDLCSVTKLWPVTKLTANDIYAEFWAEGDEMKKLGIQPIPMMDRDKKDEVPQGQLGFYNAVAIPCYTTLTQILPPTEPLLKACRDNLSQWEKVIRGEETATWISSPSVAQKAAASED
T2 sequence (P41595 whole entry): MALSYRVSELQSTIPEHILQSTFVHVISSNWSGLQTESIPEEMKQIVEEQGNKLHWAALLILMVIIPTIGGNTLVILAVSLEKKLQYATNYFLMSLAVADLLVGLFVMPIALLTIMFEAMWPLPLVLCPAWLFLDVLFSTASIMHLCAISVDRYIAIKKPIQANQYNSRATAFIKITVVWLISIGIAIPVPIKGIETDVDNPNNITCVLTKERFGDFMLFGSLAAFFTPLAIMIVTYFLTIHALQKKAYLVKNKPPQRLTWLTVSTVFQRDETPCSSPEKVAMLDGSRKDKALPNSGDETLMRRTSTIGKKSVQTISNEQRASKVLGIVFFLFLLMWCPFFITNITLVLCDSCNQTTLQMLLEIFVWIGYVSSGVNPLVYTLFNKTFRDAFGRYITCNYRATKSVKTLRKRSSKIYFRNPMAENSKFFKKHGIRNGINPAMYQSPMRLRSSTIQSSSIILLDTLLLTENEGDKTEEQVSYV

In the case of `CN1C(=O)c2c(nn(Cc3ccc(-c4cccc(F)n4)cc3)c2Nc2ccccc2)N2C1=N[C@@H]1CCC[C@@H]12` [ITI-214], the “selectivity over other PDEs” value ([1]; PDE1 over other PDEs, ref Li et al., 2016) is given as over 1000 fold and the IC50 ([1]; ref Li et al., 2016) is given as 0.058 nM.
For `COc1ccc2c([C@H]3CCc4ccc(Cl)cc43)ncnc2c1OC` [PF-04822163, (S)-4-(6-Chloro-2,3-dihydro-1H-inden-1-yl)-7,8-dimethoxyquinazoline], the IC50 [2] was 2 nM, the “selectivity over other PDEs for PDE1A” value [2] was 126 fold and the IC50 [3] was 2.4 nM. The “selectivity over other PDEs for PDE1B” value [3] was 105 fold, the IC50 [4] was 7 nM and the “selectivity over other PDEs for PDE1C” value [4] was 36 fold. For the same compound, the IC50 [5] was 252 nM, the logD [6] was 2.53 and the “off-target binding (>50% inhibition)” value [7] was “no significant off-target binding”. The Ki [8] was 262 nM, the Ki [9] was 4860 nM and the “decrease in radioactivity signal in PDE1B-rich regions” value [10] was 47–71%. The “reduction in uptake (AUC) in different brain regions” value ([11]; pretreatment with unlabeled blocker 1 mg/kg, 10 min before [11C]PF-04822163, AUC 0–20 min) was 7–12%, the melting point was 122 to 124 °C and the “selectivity over other PDEs” value [12] was over 100 fold.
In the case of `CCOC(=O)C1=C[C@]2(CC)CCCN3CCc4c(n1c1ccccc41)[C@@H]32` [Vinpocetine], the IC50 [1] is given as 30000 nM.
`COc1c(O[11CH3])ccc2c([C@H]3CCc4ccc(Cl)cc43)ncnc12` [[^11C]PF-04822163] showed an SUVmax ([11]; striatum, 3 min post-tracer administration, baseline) of 2.0, an uptake ([13]; at 1 and 5 min, heart, lung, liver, kidney, adrenal, and brain) of at least 3 % ID/g and a liver uptake ([13]; at 60 min) of 5 % ID/g. The “remained unchanged in the brain” value ([14]; rat brain) was 95% and the “remained unchanged in plasma” value ([14]; rat plasma) was 26%.
